What all share (type): ADME, organism-based
Data set [1] can be described thus: Oral bioavailability in male ICR mouse at 10 mg/kg. The settings on record: in vivo.
The test system of data set [2] is Mus musculus. Description: Volume of distribution at steady state in male ICR mouse at 10 mg/kg, po. Details: dose 10 mg/kg, route oral. The settings on record: in vivo.
Data set [3] concerns Mus musculus. Description: Clearance in male ICR mouse at 5 mg/kg, iv. Details: dose 5 mg/kg, route intravenous. Conditions: in vivo.
Data set [4] concerns Mus musculus. Description: Mean residence time (last) in male ICR mouse at 5 mg/kg, iv. Also noted: dose 5 mg/kg, route intravenous. The settings on record: in vivo.
Data set [5] deals with Mus musculus. Description: Volume of distribution at steady state in male ICR mouse at 5 mg/kg, iv. Also noted: dose 5 mg/kg, route intravenous. The settings on record: in vivo.
Data set [6] can be described thus: Clearance in male ICR mouse at 10 mg/kg, po. Conditions: in vivo. Details: dose 10 mg/kg, route oral.
Data set [7] can be described thus: Half life in male ICR mouse at 10 mg/kg, po. Details: dose 10 mg/kg, route oral. The settings on record: in vivo.
Data set [8] is described as follows: Half life in male ICR mouse at 5 mg/kg, iv. Conditions: in vivo. Details: dose 5 mg/kg, route intravenous.
Data set [9] in a line: Cmax in male ICR mouse at 10 mg/kg, po. Details: dose 10 mg/kg, route oral. Conditions: in vivo.
Data set [10] is described as follows: Tmax in male ICR mouse at 10 mg/kg, po. Conditions: in vivo. Also noted: dose 10 mg/kg, route oral.
A short description of data set [11]: AUC (0 to 7 hrs) in male ICR mouse at 10 mg/kg, po. Details: time < 7 hr, dose 10 mg/kg, route oral. The settings on record: plasma.
A short description of data set [12]: Mean residence time (last) in male ICR mouse at 10 mg/kg, po. Details: dose 10 mg/kg, route oral. The settings on record: in vivo.
The nature of data set [13]: AUC (0 to 7 hrs) in male ICR mouse at 5 mg/kg, iv. The settings on record: plasma. Also noted: time < 7 hr, dose 5 mg/kg, route intravenous.

Consider `CN1CCN(C(=O)c2cnc(O)nc2Oc2cc(Cl)ccc2Cl)c2ccccc21`, for which the bioavailability (as a rule, dose-corrected exposure relative to a reference, in per cent) in [1] turned out to be 13.9%. Further, the values for the Vdss in the data set on Mus musculus [2] and in the data set with Mus musculus [5] were 90.5 L/kg and 7.31 L/kg, respectively. Besides, the CL in the data set with Mus musculus [3] stood at 58.2 mL/min/kg. Also, in the data set on Mus musculus [4], the MRT (usually the average time that molecules of a dose stay in the body) was found to be 0.2 h. Further, the CL/F (as a rule, clearance divided by bioavailability, as obtained after extravascular dosing) in data set [6] is 369 mL/min/kg. In addition, the half-life (usually the time in which the quantity being followed falls by half) in data set [7] was 2.83 h; in data set [8], 1.45 h. Also, the Cmax (usually the highest concentration seen after dosing) in data set [9] was 236 ng/mL. The Tmax – broadly, the time from dosing to the highest level – in data set [10] turned out to be 1 h. For the same compound, the AUC(0-t) (as a rule, exposure summed from dosing to a finite time, without extrapolation to infinity) at 7 h was 397 ng·h/mL in data set [11] and 1430 ng·h/mL in data set [13]. Also, the MRT last (commonly a mean duration of stay, worked out from the concentration-time curve) in data set [12] is 1.97 h.

For the origin of these results see ChEMBL document CHEMBL3352618, “Discovery of novel pyrimidine and malonamide derivatives as TGR5 agonists” (Bioorg Med Chem Lett, 2014).
